Reference: the NIST ThermoML archive (doi:10.1007/s10765-008-0444-7)
± gives the expanded uncertainty stated by the source.

Key:
[1] = xn = mol fraction of the nth substance listed; conditions: 101 kPa, Liquid; for viscosity: Capillary tube (Ostwald / Ubbelohde) method; for mass density: Pycnometric method
[2] = 101.3 kPa, Liquid; for viscosity: Capillary tube (Ostwald / Ubbelohde) method; for mass density: Pycnometric method

CO [methanol] + Clc1ccccc1
[1], x1 = 1
Conditions | mass density [kg/m3] | viscosity [mPa·s]
293 K | 791.1 ± 3.5 | 0.591 ± 0.016
303 K | 781.9 ± 3.5 | 0.518 ± 0.014
313 K | 772.4 ± 3.4 | 0.45 ± 0.013

Clc1ccccc1 [chlorobenzene]
[2]
Conditions | mass density [kg/m3] | viscosity [mPa·s]
293 K | 1105.8 ± 6.8 | 0.8432 ± 0.023
303 K | 1095 ± 6.7 | 0.721 ± 0.02
313 K | 1082 ± 6.6 | 0.6247 ± 0.017

Brc1ccccc1 [bromobenzene] + CO
[1]
Conditions | mass density, 293 K [kg/m3] | mass density, 303 K [kg/m3] | mass density, 313 K [kg/m3] | viscosity, 293 K [mPa·s] | viscosity, 303 K [mPa·s] | viscosity, 313 K [mPa·s]
x2 = 0 | 1497 ± 12 | 1483 ± 12 | 1467 ± 12 | 1.164 ± 0.032 | 0.9844 ± 0.027 | 0.8786 ± 0.024
x2 = 0.3528 | 1381 ± 11 | 1367 ± 10 | 1352 ± 10 | 1.124 ± 0.031 | 0.9306 ± 0.026 | 0.8142 ± 0.022
x2 = 0.5504 | 1280 ± 9.1 | 1267 ± 9 | 1253 ± 8.8 | 1.008 ± 0.028 | 0.8356 ± 0.023 | 0.7399 ± 0.02
x2 = 0.6775 | 1192 ± 7.9 | 1179 ± 7.8 | 1166 ± 7.6 | 0.8873 ± 0.024 | 0.742 ± 0.021 | 0.6444 ± 0.018
x2 = 0.7657 | 1114 ± 6.9 | 1102 ± 6.8 | 1089 ± 6.7 | 0.8144 ± 0.022 | 0.6962 ± 0.019 | 0.6019 ± 0.017
x2 = 0.8305 | 1045 ± 6.1 | 1033 ± 6 | 1021 ± 5.9 | 0.7619 ± 0.021 | 0.6467 ± 0.018 | 0.5686 ± 0.016
x2 = 0.8802 | 983 ± 5.4 | 972.1 ± 5.3 | 960.7 ± 5.2 | 0.7235 ± 0.02 | 0.617 ± 0.017 | 0.5451 ± 0.015
x2 = 0.9195 | 927.6 ± 4.8 | 917.2 ± 4.8 | 906.4 ± 4.7 | 0.686 ± 0.019 | 0.5891 ± 0.016 | 0.513 ± 0.014
x2 = 0.9552 | 871.4 ± 4.3 | 861.5 ± 4.2 | 851.1 ± 4.1 | 0.657 ± 0.018 | 0.5651 ± 0.016 | 0.49 ± 0.014
x2 = 0.9778 | 832.3 ± 3.9 | 822.8 ± 3.8 | 812.9 ± 3.8 | 0.6312 ± 0.017 | 0.5344 ± 0.015 | 0.4773 ± 0.013

Brc1ccccc1 [bromobenzene]
[2]
Conditions | mass density [kg/m3] | viscosity [mPa·s]
293 K | 1497 ± 12 | 1.164 ± 0.032
303 K | 1483 ± 12 | 0.9844 ± 0.027
313 K | 1467 ± 12 | 0.8786 ± 0.024
